# Laboratory results reported in patent publication US7824691B2 (priority 2005, dated 2010).
# Ends that are not written are not given here.
# Key:
# S. aureus ATCC 25923 = assay: Murine sepsis model 1, live S. aureus i.v. challenge (lethality, bacteremia); format: in vivo, BALB/c male mice; settings: for Lethality (%) / Lethality (dead/total): monitored 72 h; for Quantitative Blood Culture (CFU/ml), mean ± S.D. / Qualitative Blood Culture (positive/total): blood 24 h after challenge
# Experimental: Animals: BALB/c male mice weighing 23 to 30 g were used for all the experiments. All animals were housed in individual cages under constant temperature (22° C.) and humidity with a 12 hour light/dark cycle and had access to food and water ad libitum throughout the study. The study was approved by the animal research ethics committee of the I.N.R.C.A.-I.R.R.C.S., Polytechnic University of Marche, Ancona, Italy.
# Preparation of the inoculum: S. aureus ATCC 25923 were grown overnight at 37° C. in brain-heart infusion broth. When bacteria were in the log phase of growth the suspension was centrifuged at 1000× g for 15 min, the supernatant was discarded, and the bacteria were resuspended in sterile saline to achieve a concentration of approximately 1×10^7 CFU/mL.
# (§1) Implantation of inoculum: All animals were anesthetized by an intramuscular injection of ketamine (30 mg/kg of body weight). Mice were injected intravenously (i.v.) via the tail vein with 0.2 mL of the above mentioned bacterial suspensions: (i) 2.0×10^6 CFU of S. aureus ATCC 25923 (model 1), or (ii) 5.0×10^8 heat-killed cells (model 2) on day 0 and monitored for 72 hours.
# (§2) Antibiotic therapy. […] Each group included 20 mice. The animals were returned to individual cages and monitored for the subsequent 72 hours. The endpoints of the study were lethality rates (model 1), quantitative blood cultures (bacteremia, model 1), and TNF-α or IL-6 plasma levels (model 2).
# Evaluation of treatment: Blood samples for culture were obtained from the tail vein by aseptic percutaneous puncture 24 h after bacterial challenge. The animals that died before this time were not tested. To perform quantitative bacterial cultures, blood samples were serially diluted, a 0.1 mL volume of each dilution was spread on blood agar plates and cultured at 35° C. for 48 h, and colony forming units (CFU) were counted. The limit of detection was <10 CFU/mL.
# Statistical analysis: Lethality rates between groups were compared by use of Fisher's exact test. Data from quantitative blood cultures were presented as means±standard deviations (SDs) of the mean; statistical comparisons between groups were made by analysis of variance. Post hoc comparisons were performed by Bonferroni's test. Plasma IL-6 and TNF-α mean values were compared between groups by analysis of variance. Significance was accepted when the p value was <0.05.
# TNF-α plasma levels = assay: Murine sepsis model 2, heat-killed S. aureus challenge, plasma TNF-α; format: in vivo, BALB/c male mice
# Experimental: (§3) Heat-killed S. aureus were prepared by boiling for 10 min and sonicating a bacterial suspension for 1 min in phosphate buffered saline containing approximately 2.5×10^9 cells/mL.
# as §1, §2
# (§4) Plasma TNF-α and IL-6 levels. […] TNF-α levels were measured with a solid phase sandwich enzyme-linked immunosorbent assay (ELISA). The intensity of the color was measured in a MR 700 Microplate Reader (Dynatech Laboratories, Guernsey, United Kingdom) by reading the absorbance at 450 nm. […] The plasma concentrations of IL-6 were also determined by ELISA, as described above. Quantification was performed on the basis of a standard curve. […]
# IL-6 plasma levels = assay: Murine sepsis model 2, heat-killed S. aureus challenge, plasma IL-6; format: in vivo, BALB/c male mice
# Experimental: as §3, §1, §2, §4
# [1] = Toxicity in supplementary treated groups without challenge; format: in vivo, BALB/c male mice; settings: supplementary treated groups without previous infection
# RAW264.7 cells [2] = assay: LTA-stimulated NO production by RAW264.7 cells (Griess reagent); format: cell-based, murine; settings: 20 μg/mL inactive RIP peptide analogue; data not shown
# Experimental: (§5) Cytokine production by RAW 264.7 cells: The murine macrophage cell line RAW264.7 was obtained from American Type Culture Collection (ATCC) and maintained in RPMI supplemented with 10% fetal calf serum (FCS), 2 mM L-glutamine, 100 units/mL penicillin and 100 μg/mL streptomycin in a humidified 37° C. incubator. RAW264.7 cells were plated in 24-well dishes at 10^6 cells/well in the above medium and incubated at 37° C. in 5% CO2 overnight. RPMI was aspirated from cells grown overnight and replaced with fresh medium. […] Peptides were added simultaneously with LTA. After 24 hours incubation, the supernatants were removed and tested for TNF-α production by enzyme linked immunosorbent assay (ELISA; Euroclone Life Sciences, Milan, Italy) according to the manufacturer's specification. All samples were run in duplicate. The detection limit for TNF-α was <0.025 ng/mL.
# Nitric oxide (NO) detection: RAW264.7 cells were cultured as described above. The amount of LTA-stimulated production of NO in the supernatant over 24 hours was estimated from the accumulation of the stable NO metabolite nitrite with Griess reagent (Molecular Probes, Eugene, Oreg.) according to the manufacturer's instructions.
# RAW264.7 cells [3] = assay: LTA-induced TNF-α production by RAW264.7 cells (ELISA); format: cell-based, murine; settings: 20 μg/mL inactive RIP peptide analogue; data not shown
# Experimental: as §5
# [4] = model 1a: i.v. treatment immediately after challenge
# [5] = model 1a: treatment immediately after challenge
# [6] = model 1b: i.v. treatment 6 h (360 min) after challenge
# [7] = model 1b: treatment 6 h after challenge
Compound,Lethality (%) (S. aureus ATCC 25923; [4]),"Quantitative Blood Culture (CFU/ml), mean ± S.D. (S. aureus ATCC 25923; [5])",Lethality (%) (S. aureus ATCC 25923; [6]),"Quantitative Blood Culture (CFU/ml), mean ± S.D. (S. aureus ATCC 25923; [7])",changes in physiological parameters [1],drug-related adverse effects [1],other results
C[C@@H](O)[C@H]1C(=O)N2C(C(=O)O)=C(SCCN=CN)C[C@H]12 [imipenem],30,5.8 ± 1.4 × 10^2de CFU/ml,35,7.1 ± 1.7 × 10^2de CFU/ml,,,
CN[C@H](CC(C)C)C(=O)N[C@H]1C(=O)N[C@@H](CC(N)=O)C(=O)N[C@H]2C(=O)N[C@H]3C(=O)N[C@H](C(=O)N[C@H](C(=O)O)c4cc(O)cc(O)c4-c4cc3ccc4O)[C@H](O)c3ccc(c(Cl)c3)Oc3cc2cc(c3O[C@@H]2O[C@H](CO)[C@@H](O)[C@H](O)[C@H]2O[C@H]2C[C@](C)(N)[C@H](O)[C@H](C)O2)Oc2ccc(cc2Cl)[C@H]1O [vancomycin],20,7.8±1.8×10^1 CFU/ml,20,9.0 ± 2.8 × 10^1deg CFU/ml,,,"TNF-α plasma levels (TNF-α plasma levels; model 2a: drugs at 0 min after heat-killed cell challenge, FIG. 3A): No substantial differences; plasma TNF-α concentrations (TNF-α plasma levels; model 2b: drugs 360 min after heat-killed bacterial challenge, FIG. 3B): constant increase; IL-6 plasma levels (IL-6 plasma levels; model 2a: drugs at 0 min after heat-killed cell challenge, FIG. 4A): No substantial differences; plasma IL-6 concentrations (IL-6 plasma levels; model 2b: drugs 360 min after heat-killed bacterial challenge, FIG. 4B): constant increase; Lethality (dead/total) (S. aureus ATCC 25923; [4]): 4/20; Qualitative Blood Culture (positive/total) (S. aureus ATCC 25923; [5]): 5/20^df; Quantitative Blood Culture (CFU/ml), mean ± S.D. (S. aureus ATCC 25923; model 1a: treatment immediately after challenge, listed as VAN): 7.8 ± 1.8 × 10^1deg CFU/ml; Lethality (dead/total) (S. aureus ATCC 25923; [6]): 4/20; Qualitative Blood Culture (positive/total) (S. aureus ATCC 25923; [7]): 5/20^df"
GGLRSLGRKILRAWKKYGPIIVPIIRI-NH2 [BMAP-28],,,,,no changes in physiological parameters,none of the animals had clinical evidence of drug-related adverse effects,
YKPETNF-NH2 [inactive RIP peptide analogue],,,,,,,decrease of LTA-stimulated NO (RAW264.7 cells [2]): did not demonstrate decrease; decrease of LTA-induced TNF-α (RAW264.7 cells [3]): did not demonstrate decrease
"YSPWTNF-NH2 [RIP, YSPWTNF-NH2]",,,,,no changes in physiological parameters,none of the animals had clinical evidence of drug-related adverse effects,
